Experimental data: US9745328B2, “Flap modulators” (JANSSEN PHARMACEUTICA NV, priority 2013, dated 2017)
Read-outs that look alike come from different tables or passages of the source.

Assays:
human FLAP = human FLAP (Homo sapiens (Human), UniProt P20292); experiment: FLAP binding assay (HTRF format); conditions: human FLAP wild type, Table 6 (additional runs)
Outline: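 Binding values are averages from two separate assay plates, with each sample run in duplicate per plate. Data are expressed as an HTRF ratio.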

[1] = tested on: leukotriene pathway in human whole blood (LTB4); experiment: Human whole blood assay (LTB4 levels after calcium ionophore A23187 stimulation); type: cell-based; conditions: Homo sapiens, read-out: Human Whole Blood LTB4 IC50 1:1
Outline: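 Heparinised human whole blood, diluted 1:1 in RPMI, was pre-incubated with test compounds for 15 min at 37° Celsius, then stimulated with A23187 (7 μg/mL) for 30 min at 37° Celsius. Plasma LTB4 was measured by immunoassay kit; IC50 from 4-parameter fit; single replicate, at least one healthy donor.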

[2] = human whole blood diluted 1:1, A23187 stimulation, Table 6 (additional runs)

human FLAP, sequence (P20292 whole entry): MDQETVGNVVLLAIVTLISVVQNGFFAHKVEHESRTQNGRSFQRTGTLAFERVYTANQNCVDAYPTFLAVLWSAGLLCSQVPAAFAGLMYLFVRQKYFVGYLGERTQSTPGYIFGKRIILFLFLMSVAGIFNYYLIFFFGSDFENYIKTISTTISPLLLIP

Row | SMILES | Ki (human FLAP) | IC50 [1, 2] | IC50 [1]
1 | Nc1cnc(-c2ccc(-c3ccccc3O[C@H]3CC[C@H](N)CC3)cc2F)cn1 [Example 891] | 31.5 nM | 752 nM | –
2 | Nc1cnc(-c2ccc(-c3ccc(C(F)(F)F)cc3N)cc2F)cn1 [Example 892, 5-[2′-Amino-3-fluoro-4′-(trifluoromethyl)biphenyl-4-yl]pyrazin-2-amine] | 77.4 nM | 731 nM | –
3 | Nc1cnc(-c2ccc(-c3cccnc3-c3ccccc3)cc2F)cn1 [Example 893, 5-[2-Fluoro-4-(2-phenylpyridin-3-yl)phenyl]pyrazin-2-amine] | 30.3 nM | 603 nM | –
4 | Nc1ncc(-c2ccc(-c3cccnc3Oc3ccccc3)cc2F)cn1 [Example 895, 5-[2-Fluoro-4-(2-phenoxypyridin-3-yl)phenyl]pyrimidin-2-amine] | 13.2 nM | 222 nM | –
5 | Nc1cnc(-c2ccc(-c3cccnc3Oc3cccnc3)cc2F)cn1 [Example 896, 5-{2-Fluoro-4-[2-(pyridin-3-yloxy)pyridin-3-yl]phenyl}pyrazin-2-amine] | 22.1 nM | 466 nM | –
6 | Nc1cnc(-c2ccc(-c3cccnc3S(=O)(=O)c3ccccc3)cc2F)cn1 [Example 897, 5-{2-Fluoro-4-[2-(phenylsulfonyl)pyridin-3-yl]phenyl}pyrazin-2-amine] | 7 nM | 90.3 nM | –
7 | Nc1ncc(-c2ccc(-c3cccnc3S(=O)(=O)c3ccccc3)cc2F)cn1 [Example 898, 5-{2-Fluoro-4-[2-(phenylsulfonyl)pyridin-3-yl]phenyl}pyrimidin-2-amine] | 79.7 nM | 928 nM | –
8 | Nc1cnc(-c2ccc(-c3cccnc3S(=O)(=O)c3cccnc3)cc2F)cn1 [Example 899, 5-{2-Fluoro-4-[2-(pyridin-3-ylsulfonyl)pyridin-3-yl]phenyl}pyrazin-2-amine] | 77 nM | 87.3 nM | –
9 | CN1CCC(S(=O)(=O)c2ncccc2-c2ccc(-c3cnc(N)cn3)c(F)c2)C1 (centres unmarked) [Example 900, 5-(2-Fluoro-4-{2-[(1-methylpyrrolidin-3-yl)sulfonyl]pyridin-3-yl}phenyl)pyrazin-2-amine] | 35.1 nM | 40.8 nM | –
10 | CC(C)S(=O)(=O)c1nc(C(F)(F)F)ccc1-c1ccc(-c2cnc(N)nc2)c(F)c1 [Example 902, 5-(2-Fluoro-4-{2-[(1-methylethyl)sulfonyl]-6-(trifluoromethyl)pyridin-3-yl}phenyl)pyrimidin-2-amine] | 18.4 nM | 88.6 nM | –
11 | CC(=O)N1CCCC(S(=O)(=O)c2ncccc2-c2ccc(-c3cnc(N)cn3)c(F)c2)C1 (centres unmarked) [Example 903, 5-(4-{2-[(1-Acetylpiperidin-3-yl)sulfonyl]pyridin-3-yl}-2-fluorphenyl)pyrazin-2-amine] | 38.7 nM | 63.4 nM | –
12 | Nc1cnc(-c2ccc(-c3cccnc3S(=O)(=O)C3CCN(CCO)CC3)cc2F)cn1 [Example 904, 2-[4-({3-[4-(5-Aminopyrazin-2-yl)-3-fluorophenyl]pyridin-2-yl}sulfonyl)pipendin-1-yl]ethanol] | 255 nM | 105 nM | –
13 | Nc1ncc(-c2ccc(-c3ccc(C(F)(F)F)nc3S(=O)(=O)C3CCOCC3)cc2F)cn1 [Example 907, 5-{2-Fluoro-4-[2-(tetrahydro-2H-pyran-4-ylsulfonyl)-6-(trifluoromethyl)pyridin-3-yl]phenyl}pyrimidin-2-amine] | 6 nM | – | 12 nM
14 | CS(=O)(=O)N1CCC(S(=O)(=O)c2ncccc2-c2ccc(-c3cnc(N)cn3)c(F)c2)CC1 [Example 908, 5-[2-Fluoro-4-(2-{[1-(methylsulfonyl)piperidin-4-yl]sulfonyl}pyridin-3-yl)phenyl]pyrazin-2-amine] | 26.6 nM | 43.7 nM | –
15 | CS(=O)(=O)N1CCC(S(=O)(=O)c2ncccc2-c2ccc(-c3cnc(N)nc3)c(F)c2)CC1 [Example 909, 5-(2-Fluoro-4-(2-{[1-(methylsulfonyl)piperidin-4-yl]sulfonyl}pyridin-3-yl)phenyl]pyrimidin-2-amine] | 253 nM | 117 nM | –
16 | CC(=O)N1CCC(S(=O)(=O)c2nc(C(F)(F)F)ccc2-c2ccc(-c3cnc(N)cn3)c(F)c2)CC1 [Example 910] | 2.9 nM | 9.2 nM | –
17 | CC(=O)N1CCC(S(=O)(=O)c2nc(C(F)(F)F)ccc2-c2ccc(-c3cnc(N)nc3)c(F)c2)CC1 [Example 911, 5-(4-{2-[(1-Acetylpiperidin-4-yl)sulfonyl]-6-(trifluoromethyl)pyridin-3-yl}-2-fluorophenyl)pyrimidin-2-amine] | 166 nM | 28.7 nM | –

More lines, in order of falling Ki (human FLAP), values ahead:

Row | Ki (human FLAP) | IC50 [1, 2] | SMILES | IC50 [1]
18 | 6.3 nM | 11.9 nM | Nc1ncc(-c2ccc(-c3ccc(C(F)(F)F)nc3S(=O)(=O)C3CCS(=O)(=O)CC3)cc2F)cn1 [Example 913, 5-(4-{2-[(1,1-Dioxidotetrahydro-2H-thiopyran-4-yl)sulfonyl]-6-(trifluoromethyl)pyridin-3-yl}-2-fluorophenyl)pyrimidin-2-amine] | –
19 | 3.9 nM | 236 nM | Nc1ncc(-c2ccc(-c3ccccc3Oc3ccc(C(=O)O)cc3)cc2F)cn1 [Example 889, 4-{[4′-(2-Aminopyrimidin-5-yl)-3′-fluorobiphenyl-2-yl]oxy}benzoic acid] | –
20 | 3.8 nM | 141 nM | Nc1cnc(-c2ccc(-c3cccnc3Oc3ccccc3)cc2F)cn1 [Example 894, 5-[2-Fluoro-4-(2-phenoxypyridin-3-yl)phenyl]pyrazin-2-amine] | –
21 | 3.7 nM | 62.3 nM | NC(=O)c1ccc(Oc2ccccc2-c2ccc(-c3cnc(N)nc3)c(F)c2)cc1 [Example 890, 4-{[4′-(2-Aminopyrimidin-5-yl)-3′-fluorobiphenyl-2-yl]oxy)benzamide] | –
22 | 1.8 nM | 1.6 nM | CC(C)S(=O)(=O)c1nc(C(F)(F)F)ccc1-c1ccc(-c2cnc(N)cn2)c(F)c1 [Example 901, 5-(2-Fluoro-4-{2-[(1-methylethyl)sulfonyl]-6-(trifluoromethyl)pyridin-3-yl}phenyl)pyrazin-2-amine] | –
23 | 0.7 nM | 367 nM | Nc1cnc(-c2ccc(-c3ccccc3Oc3ccc(C(=O)O)cc3)cc2F)cn1 [Example 888, 4-{[4′-(5-Aminopyrazin-2-yl)-3′-fluorobiphenyl-2-yl]oxy}benzoic acid] | –
24 | 0.5 nM | 8.8 nM | Nc1cnc(-c2ccc(-c3ccc(C(F)(F)F)nc3S(=O)(=O)C3CCS(=O)(=O)CC3)cc2F)cn1 [Example 912, 5-(4-{2-[(1,1-Dioxidotetrahydro-2H-thiopyran-4-yl)sulfonyl]-6-(trifluoromethyl)pyridin-3-yl}-2-fluorophenyl)pyrazin-2-amine] | –
25 | 0.3 nM | 2 nM | Nc1cnc(-c2ccc(-c3ccc(C(F)(F)F)nc3S(=O)(=O)C3CCOCC3)cc2F)cn1 [Example 906, 5-{2-Fluoro-4-[2-(tetrahydro-2H-pyran-4-ylsulfonyl)-6-(trifluoromethyl)pyridin-3-yl]phenyl}pyrazin-2-amine] | –
